Laboratory results taken from patent US20220249711A1, “METHODS FOR TREATING TUMORS” (CENTRE HOSPITALIER UNIVERSITAIRE DE GRENOBLE, priority 2019, published 2022).

How the values were obtained:
brain metastases = assay: MRI signal enhancement in brain metastases, Nano-Rad phase I-b trial; type: in vivo, human; conditions: D0, 15 min after i.v. Dotarem 0.2 mL/kg (0.1 mmol/kg); metastases >1 cm; mean ±SD
Text: This study is part of a prospective dose escalation phase I-b clinical trial to evaluate the tolerance of the intravenous administration of radiosensitizing AGuIX nanoparticles in combination with whole brain radiotherapy for the treatment of brain metastases. The Nano-Rad trial (Radiosensitization of Multiple Brain Metastases Using AGuIX Gadolinium Based Nanoparticles) was registered as NCT02820454. Here, we report the findings of the MRI protocol applied to the 15 recruited patients. The objectives assigned to this MRI ancillary study were to i) assess the distribution of AGuIX nanoparticles in brain metastases and surrounding healthy tissues and ii) to measure the T1-weighted contrast enhancement and nanoparticle concentration in brain metastases and surrounding healthy tissues after intravenous administration of AGuIX nanoparticles (Verry C, et al. BMJ Open. 9:e023591 (2019)).
Patients with multiple brain metastases ineligible for local treatment by surgery or stereotactic radiation were recruited. […]

[1] = magnetic field of 3 Tesla; reference cited; cited from earlier work

In the case of `CNC[C@H](O)[C@@H](O)[C@H](O)[C@H](O)CO.O=C([O-])CN1CCN(CC(=O)[O-])CCN(CC(=O)O)CCN(CC(=O)[O-])CC1.[Gd+3]` [Dotarem, gadoterate meglumine], the “MRI enhancement averaged over all measurable metastases” value (brain metastases) is given as 182.9±116.2% and the “r1 per Gd^3+ ion” value [1] is given as 3.5 mM⁻¹ s⁻¹.
